Drawing on patent US4868321A, “Isothiocyanate intermediates” (FMC Corporation, priority 1988, dated 1989), this text covers pest or weed control and plant injury for five compounds.

What all share (type): in vivo
Assay [1] relates to Green Foxtail. The assay can be described thus: Preemergence Herbicidal Activity, Green Foxtail. The settings on record: Setaria viridis, pre-emergence; for pest or weed control at 500 g/ha: 0.5 kg/ha; for pest or weed control at 1000 g/ha: 1.0 kg/ha. In a few lines:
(§1)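 Efficacy is recorded as percent control at each application rate, expressed in kg/ha.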

Assay [2] has as its system Wheat. Put plainly: Postemergence Herbicidal Activity, Wheat. The settings on record: Triticum aestivum, post-emergence; for plant injury at 500 g/ha: 0.5 kg/ha; for plant injury at 1000 g/ha: 1.0 kg/ha. Summed up:
(§2)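 Test compounds are dosed on a per-area basis (kg/ha); plant response is reported as % C.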

Assay [3] has as its system Morningglory. The assay can be described thus: Preemergence Herbicidal Activity, Morningglory. The settings on record: Ipomoea, pre-emergence; for pest or weed control at 500 g/ha: 0.5 kg/ha; for pest or weed control at 1000 g/ha: 1.0 kg/ha. In a few lines:
(§3)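 Percent control scored after pre- or postemergence treatment at rates in kg/ha, using test compounds generally formulated in 50/50 acetone/water.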

Assay [4] concerns Johnsongrass. The assay can be described thus: Preemergence Herbicidal Activity, Johnsongrass. The settings on record: Sorghum halepense, pre-emergence; for pest or weed control at 500 g/ha: 0.5 kg/ha; for pest or weed control at 1000 g/ha: 1.0 kg/ha. Summed up: as §1
For assay [5], the system named is Velvetleaf. Put plainly: Postemergence Herbicidal Activity, Velvetleaf. The settings on record: Abutilon theophrasti, post-emergence; for pest or weed control at 500 g/ha: 0.5 kg/ha; for pest or weed control at 1000 g/ha: 1.0 kg/ha. In a few lines: as §3
Assay [6] has as its system Rice. The assay can be described thus: Postemergence Herbicidal Activity, Rice. The settings on record: Oryza sativa, post-emergence; for plant injury at 500 g/ha: 0.5 kg/ha; for plant injury at 1000 g/ha: 1.0 kg/ha. Summed up:
as §2

In assay [7] the test system is Soybean. Put plainly: Postemergence Herbicidal Activity, Soybean. The settings on record: Glycine max, post-emergence; for plant injury at 500 g/ha: 0.5 kg/ha; for plant injury at 1000 g/ha: 1.0 kg/ha. In a few lines:
as §2

The subject of assay [8] is Morningglory. Put plainly: Postemergence Herbicidal Activity, Morningglory. Conditions: Ipomoea, post-emergence; for pest or weed control at 500 g/ha: 0.5 kg/ha; for pest or weed control at 1000 g/ha: 1.0 kg/ha. Summed up: as §3
Assay [9] relates to Barnyardgrass. The assay can be described thus: Postemergence Herbicidal Activity, Barnyardgrass. Conditions: Echinochloa crus-galli, post-emergence; for pest or weed control at 500 g/ha: 0.5 kg/ha; for pest or weed control at 1000 g/ha: 1.0 kg/ha. Summed up:
as §1

Assay [10] concerns Cotton. Put plainly: Preemergence Herbicidal Activity, Cotton. Conditions: Gossypium hirsutum, pre-emergence; for plant injury at 500 g/ha: 0.5 kg/ha; for plant injury at 1000 g/ha: 1.0 kg/ha. Summed up:
as §3

Assay [11] concerns Barnyardgrass. The assay can be described thus: Preemergence Herbicidal Activity, Barnyardgrass. Conditions: Echinochloa crus-galli, pre-emergence; for pest or weed control at 500 g/ha: 0.5 kg/ha; for pest or weed control at 1000 g/ha: 1.0 kg/ha. Summed up:
as §1

The subject of assay [12] is Field Corn. Put plainly: Postemergence Herbicidal Activity, Field Corn. Conditions: Zea mays, post-emergence; for plant injury at 500 g/ha: 0.5 kg/ha; for plant injury at 1000 g/ha: 1.0 kg/ha. Summed up: as §2
The test system of assay [13] is Wheat. The assay can be described thus: Preemergence Herbicidal Activity, Wheat. Conditions: Triticum aestivum, pre-emergence; for plant injury at 500 g/ha: 0.5 kg/ha; for plant injury at 1000 g/ha: 1.0 kg/ha. Summed up:
as §2

Assay [14] relates to Cotton. Put plainly: Postemergence Herbicidal Activity, Cotton. Conditions: Gossypium hirsutum, post-emergence; for plant injury at 500 g/ha: 0.5 kg/ha; for plant injury at 1000 g/ha: 1.0 kg/ha. In a few lines: as §3
Assay [15] deals with Field Corn. Put plainly: Preemergence Herbicidal Activity, Field Corn. Conditions: Zea mays, pre-emergence; for plant injury at 500 g/ha: 0.5 kg/ha; for plant injury at 1000 g/ha: 1.0 kg/ha. In a few lines:
as §2

Assay [16] concerns Velvetleaf. The assay can be described thus: Preemergence Herbicidal Activity, Velvetleaf. Conditions: Abutilon theophrasti, pre-emergence; for pest or weed control at 500 g/ha: 0.5 kg/ha; for pest or weed control at 1000 g/ha: 1.0 kg/ha. Summed up:
as §3

Assay [17] deals with Field Bindweed. Put plainly: Preemergence Herbicidal Activity, Field Bindweed. Conditions: pre-emergence; for pest or weed control at 500 g/ha: 0.5 kg/ha; for pest or weed control at 1000 g/ha: 1.0 kg/ha. In a few lines:
as §3

Assay [18] has as its system Soybean. The assay can be described thus: Preemergence Herbicidal Activity, Soybean. The settings on record: Glycine max, pre-emergence; for plant injury at 500 g/ha: 0.5 kg/ha; for plant injury at 1000 g/ha: 1.0 kg/ha. Summed up:
as §2

For assay [19], the system named is Field Bindweed. Put plainly: Postemergence Herbicidal Activity, Field Bindweed. The settings on record: post-emergence; for pest or weed control at 500 g/ha: 0.5 kg/ha; for pest or weed control at 1000 g/ha: 1.0 kg/ha. From the text:
The herbicidal data in the following Tables 3 and 4 was obtained in the manner described in PCT published application no. WO 85/01939, previously mentioned, usually employing solutions of the herbicidal compound in 50/50 acetone/water mixtures. In those tables, the test compounds are identified by numbers which correspond to those in Table 1, "kg/ha" is kilograms per hectare, and "% C" is percent control.

Assay [20] relates to Green Foxtail. The assay can be described thus: Postemergence Herbicidal Activity, Green Foxtail. The settings on record: Setaria viridis, post-emergence; for pest or weed control at 500 g/ha: 0.5 kg/ha; for pest or weed control at 1000 g/ha: 1.0 kg/ha. In a few lines: as §1
The subject of assay [21] is Johnsongrass. Put plainly: Postemergence Herbicidal Activity, Johnsongrass. Conditions: Sorghum halepense, post-emergence; for pest or weed control at 500 g/ha: 0.5 kg/ha; for pest or weed control at 1000 g/ha: 1.0 kg/ha. In a few lines:
as §1

In assay [22] the test system is Rice. Put plainly: Preemergence Herbicidal Activity, Rice. The settings on record: Oryza sativa, pre-emergence; for plant injury at 500 g/ha: 0.5 kg/ha; for plant injury at 1000 g/ha: 1.0 kg/ha. In a few lines: as §2

As a reminder, the pest or weed control is how far the test organism was held down. High values mean strong suppression, low ones weak suppression. As usually defined, the plant injury is the degree to which the test organism was suppressed or injured, in per cent. Read a low plant injury as a weak effect.

For `CCS(=O)(=O)N(CC#N)c1cc(-n2nnn(CCCF)c2=O)c(F)cc1Cl` [Compound 16], the pest or weed control at 500 g/ha worked out at 100% in the assay with Green Foxtail [1]; 100% with Morningglory [3]; 90% with Johnsongrass [4]; 100% with Velvetleaf [5]; 100% in the assay on Morningglory [8]; 50% with Barnyardgrass [9]. The pest or weed control at 500 g/ha in the assay on Barnyardgrass [11] came out at 90%; in the assay with Velvetleaf [16], 100%; with Field Bindweed [17] it was 100%; in the assay on Field Bindweed [19], 100%; in the assay on Green Foxtail [20], 70%; with Johnsongrass [21], 60%. Moreover, the plant injury at 500 g/ha in the assay on Wheat [2] was 60%; with Rice [6], 50%; in the assay on Soybean [7] it was 70%; in the assay on Cotton [10], 100%; with Field Corn [12] it was 50%; in the assay with Wheat [13], 60%. Further, the plant injury at 500 g/ha was 100% in the assay with Cotton [14], 95% in the assay on Field Corn [15], 80% in the assay with Soybean [18] and 70% with Rice [22].
As for `CCOC(=O)CN(c1cc(-n2nnn(CCCF)c2=O)c(F)cc1Cl)S(=O)(=O)CC` [Compound 17, ethyl [2-chloro-4-fluoro-5-[1,4-dihydro-5-oxo-4-(3-fluoropropyl)tetrazol-1-yl]-phenyl(N--ethylsulfonyl)amino]-acetate], the pest or weed control at 1000 g/ha in the assay on Green Foxtail [1] was found to be 30%; with Morningglory [3] it was 30%; with Johnsongrass [4], 60%; in the assay on Velvetleaf [5], 95%; in the assay on Morningglory [8], 60%; in the assay on Barnyardgrass [9], 40%. In addition, the pest or weed control at 1000 g/ha was 20% in the assay with Barnyardgrass [11]; 90% in the assay on Velvetleaf [16]; 10% with Field Bindweed [17]; 80% with Field Bindweed [19]; 40% in the assay with Green Foxtail [20]; 40% in the assay on Johnsongrass [21]. Also, the plant injury at 1000 g/ha in the assay with Wheat [2] was 40%; with Rice [6], 20%; in the assay with Soybean [7], 50%; in the assay on Cotton [10], 10%; with Field Corn [12], 60%; in the assay with Wheat [13] it was 20%. Also, the plant injury at 1000 g/ha with Cotton [14] came to 90%; in the assay on Field Corn [15] it was 10%; with Soybean [18], 10%; in the assay on Rice [22], 10%.
As to `CCS(=O)(=O)N(c1cc(-n2nnn(CCCF)c2=O)c(F)cc1F)S(=O)(=O)CC` [Compound 20, 1-(2,4-difluoro-5-[bis(N--ethylsulfonyl)amino]phenyl]-1,4-dihydro-4-(3-fluoropropyl)-5H--tetrazol-5-one], the pest or weed control at 500 g/ha stood at 95% in the assay on Green Foxtail [1]; 70% in the assay with Morningglory [3]; 90% with Johnsongrass [4]; 100% in the assay with Velvetleaf [5]; 90% in the assay with Morningglory [8]; 30% with Barnyardgrass [9]. The pest or weed control at 500 g/ha was 90% in the assay with Barnyardgrass [11]; 100% in the assay on Velvetleaf [16]; 20% with Field Bindweed [17]; 30% with Field Bindweed [19]; 40% in the assay with Green Foxtail [20]; 30% in the assay with Johnsongrass [21]. The plant injury at 500 g/ha stood at 50% in the assay on Wheat [2]; 20% in the assay with Rice [6]; 30% in the assay with Soybean [7]; 90% in the assay with Cotton [10]; 20% in the assay on Field Corn [12]; 30% in the assay on Wheat [13]. In addition, the plant injury at 500 g/ha in the assay with Cotton [14] stood at 90%; in the assay with Field Corn [15] it was 90%; with Soybean [18], 20%; in the assay on Rice [22], 70%.
Turning to `CCS(=O)(=O)N(c1cc(-n2nnn(CCCF)c2=O)c(F)cc1Br)S(=O)(=O)CC` [Compound 22, 1-[4-bromo-2-fluoro-5-[bis(N--ehtylsulfonyl)amino]phenyl]-1,4-dihydro-4-(3-fluoropropyl)-5H--tetrazol-5-one], the pest or weed control at 1000 g/ha in the assay with Green Foxtail [1] came to 100%; in the assay with Morningglory [3] it was 100%; in the assay on Johnsongrass [4] it was 100%; in the assay with Velvetleaf [5], 100%; in the assay with Morningglory [8] it was 95%; with Barnyardgrass [9], 100%. For the same compound, the pest or weed control at 1000 g/ha with Barnyardgrass [11] worked out at 100%; with Velvetleaf [16], 100%; in the assay with Field Bindweed [17], 100%; with Field Bindweed [19] it was 95%; in the assay on Green Foxtail [20], 100%; in the assay with Johnsongrass [21] it was 100%. The plant injury at 1000 g/ha with Wheat [2] was 90%; in the assay with Rice [6], 80%; with Soybean [7], 95%; with Cotton [10], 100%; in the assay on Field Corn [12] it was 100%; in the assay on Wheat [13], 90%. The plant injury at 1000 g/ha was 100% in the assay on Cotton [14], 95% with Field Corn [15], 60% with Soybean [18] and 80% with Rice [22].
In the case of `CCCS(=O)(=O)N(c1cc(-n2nnn(CCCF)c2=O)c(F)cc1F)S(=O)(=O)CCC` [Compound 25], the pest or weed control at 500 g/ha in the assay with Green Foxtail [1] is 10%; in the assay with Morningglory [3] it was 10%; in the assay with Johnsongrass [4] it was 60%; in the assay on Velvetleaf [5], 80%; with Morningglory [8], 30%; in the assay on Barnyardgrass [9], 20%. Further, the pest or weed control at 500 g/ha in the assay on Barnyardgrass [11] came to 50%; in the assay with Velvetleaf [16], 20%; in the assay with Field Bindweed [17] it was 0%; with Field Bindweed [19] it was 40%; in the assay with Green Foxtail [20], 30%; in the assay on Johnsongrass [21], 20%. Also, the plant injury at 500 g/ha in the assay with Wheat [2] is 20%; in the assay on Rice [6], 20%; in the assay on Soybean [7], 20%; with Cotton [10], 10%; in the assay with Field Corn [12], 60%; in the assay on Wheat [13] it was 20%. Also, the plant injury at 500 g/ha was determined as 40% with Cotton [14], 80% with Field Corn [15], 20% in the assay on Soybean [18] and 20% in the assay with Rice [22].
